These results are taken from US5574026A, “Methods for inhibiting angiogenesis proliferation of endothelial or tumor cells and tumor growth” (American Cyanamid Company, priority 1994, dated 1996).

Experiment [1] concerns angiogenesis. As to conditions: Brem et al; in words; cited from earlier work.
For experiment [2], the system named is A2780S. Briefly: Antiproliferative activity in human tumor cell lines, PROTOCOL 1 and PROTOCOL 2. In kind it is cell-based. On the procedure:
(§1) The assays are identified as follows: PROTOCOLS 1, 2, and 3 are described in greater detail hereinbelow. In general, according to PROTOCOLS 1 and 2, the target ABAE and/or Human Tumor cells are exposed to the compounds of Formula I for 48 hours. PROTOCOL 3 exposes ABAE cells to the compounds for 4 days. A detailed description of the Protocols is as follows: Antiproliferative Activity in Human Tumor Cell Lines The antiproliferative activity of the compounds of Formula I of the present invention is evaluated in a panel comprised of human tumor cell lines. […] Cultures are renewed after 20 passages with cells from a fresh stock of batch-frozen early passage cells. Cell lines are routinely checked for mycoplasma contamination (Genprobe). In a laminar flow hood, cells (1-5×10^4) are plated into 96-well microtiter plates in a volume of 0.1 ml/well with a bulk microtiter dispenser (Denley). […] Compounds are added using a Tomtec dispenser which simultaneously dispenses from one 96-well plate, containing the drug dilutions, to the plates containing the cells. After two days of continuous drug exposure, 50% cold trichloroacetic acid (TCA) is added to 10% final concentration to fix the cells, and after 60 minutes at 4° C., the TCA is aspirated and the plates are washed 5 times with deionized water using a microtiter plate washer. […] A 0.4% solution of the dye, sulforhodamine B, in glacial acetic acid is added to the plates, and the plates are washed 5 times with 1% glacial acetic acid using the automatic plate washed. The bound stain is solubilized with 0.1 ml of 10 mMTris base. The optical densities are read from an automatic spectrophotometric plate reader (Dynatech) directly to a main frame computer (VAX 8600). Positive controls, that include standard chemotherapeutic drugs (i.e., adriamycin, cisplatin, etc.), are included in every experiment. Background optical density measurements (complete media--cells, and complete media+drug-cells) are automatically subtracted from the appropriate control and test wells. Mean values and standard errors are determined from duplicate wells. A measure is also made of the optical density at time when the drugs are added. The number of cells after treatment (P), as % of control, is calculated for every concentration of drug, as follows: [formula] wherein: T is optical density measurement for treated cells after 48 hours; C is optical density measurement for untreated cells after 48 hours; Co is optical density measurement for cells at the time of drug addition. IC50 of Growth inhibition is calculated from the sets of P values using the RS-1 data package (BBN Software). Antiproliferative Activity in Human Tumor and Adult Bovine Aortic Endothelial Cell Lines (ABAE) The antiproliferative activity of the compounds of Formula I is evaluated in a panel comprised of human tumor cell lines as listed in Protocol 1 as well as an adult bovine aortic endothelial cell line (ABAE). This assay is a modification of PROTOCOL 1.

Experiment [3] relates to HTB 161. The description is as above. It counts as cell-based. As to conditions: HTB 161, 48 hours. On the procedure: as §1
In experiment [4] the test system is A2780/DDP. The experiment is described as above. It counts as cell-based. The method, then:
as §1

Experiment [5] relates to Human Tumor cell lines. Description: Antiproliferative activity in panel of human tumor cell lines (average / panel as a whole), PROTOCOL 1 and PROTOCOL 2. The following applies: Homo sapiens; average over the tumor cell lines tested. In kind it is cell-based. The method, then:
(§2) The antiproliferative activity of the compounds of Formula I in an Adult Bovine Aortic Endothelial (ABAE) cell line and in Human Tumor cells lines is evaluated in three similar assays that measure growth inhibition. The assays are identified as follows:
(§3) PROTOCOLS 1, 2, and 3 are described in greater detail hereinbelow. In general, according to PROTOCOLS 1 and 2, the target ABAE and/or Human Tumor cells are exposed to the compounds of Formula I for 48 hours. PROTOCOL 3 exposes ABAE cells to the compounds for 4 days. A detailed description of the Protocols is as follows:
(§4) Antiproliferative Activity in Human Tumor Cell Lines
(§5) The antiproliferative activity of the compounds of Formula I of the present invention is evaluated in a panel comprised of human tumor cell lines. The human tumor cell lines are from
(§6) 2) Colon tumors: MIP, CACO2, and SW620.
(§7) All cell lines are maintained in log phase in RPMI 1640 media, supplemented with 5% fetal calf serum, penicillin/streptomycin and 2 mM L-glutamine. Cultures are renewed after 20 passages with cells from a fresh stock of batch-frozen early passage cells. Cell lines are routinely checked for mycoplasma contamination (Genprobe). In a laminar flow hood, cells (1-5×10^4) are plated into 96-well microtiter plates in a volume of 0.1 ml/well with a bulk microtiter dispenser (Denley). […] At this concentration, dimethylsulfoxide has no effect on cell growth. Compounds are added using a Tomtec dispenser which simultaneously dispenses from one 96-well plate, containing the drug dilutions, to the plates containing the cells. After two days of continuous drug exposure, 50% cold trichloroacetic acid (TCA) is added to 10% final concentration to fix the cells, and after 60 minutes at 4° C., the TCA is aspirated and the plates are washed 5 times with deionized water using a microtiter plate washer. The number of cells on the plate are quantitated using a protein dye-binding assay (Monks et al., 1991). A 0.4% solution of the dye, sulforhodamine B, in […] is added to the plates, and the plates are washed 5 times with 1% glacial acetic acid using the automatic plate washed. The bound stain is solubilized with 0.1 ml of 10 mMTris base. The optical densities are read from an automatic spectrophotometric plate reader (Dynatech) directly to a main frame computer (VAX 8600).
(§8) Positive controls, that include standard chemotherapeutic drugs (i.e., adriamycin, cisplatin, etc.), are included in every experiment.
(§9) Background optical density measurements (complete media--cells, and complete media+drug-cells) are automatically subtracted from the appropriate control and test wells. Mean values and standard errors are determined from duplicate wells. A measure is also made of the optical density at time when the drugs are added. The number of cells after treatment (P), as % of control, is calculated for every concentration of drug, as follows: [formula] wherein: T is optical density measurement for treated cells after 48 hours;
(§10) C is optical density measurement for untreated cells after 48 hours;
(§11) Co is optical density measurement for cells at the time of drug addition.
(§12) IC50 of Growth inhibition is calculated from the sets of P values using the RS-1 data package (BBN Software).
(§13) Antiproliferative Activity in Human Tumor and Adult Bovine Aortic Endothelial Cell Lines (ABAE)
(§14) The antiproliferative activity of the compounds of Formula I is evaluated in a panel comprised of human tumor cell lines as listed in Protocol 1 as well as an adult bovine aortic endothelial cell line (ABAE). This assay is a modification of PROTOCOL 1. The modifications include:
(§15) 1) each concentration for each compound is tested in a single well;
(§16) 2) compounds are tested at 20, 4, 0.8, 0.16 microgram/ml and additionally in some experiments at 100 and 0.32 microgram/ml;
(§17) 3) samples are pipetted into a 96-well plate for each of the cell lines by a Beckman Biomek 1000 SL robot; […]

Experiment [6] concerns MIP. Briefly: Antiproliferative activity in human tumor cell lines, PROTOCOL 1 and PROTOCOL 2. In kind it is cell-based. As to conditions: colon tumor cell line MIP, 48 hours. The method, then:
as §2, §3, §4, §5, §6, §7, §8, §9, §10, §11, §12, §13, §14, §15, §16, §17

Experiment [7] relates to SW620. Described as above. In kind it is cell-based. The method, then:
as §2, §3, §4, §5, §6, §7, §8, §9, §10, §11, §12, §13, §14, §15, §16, §17

The test system of experiment [8] is Adult Bovine Aortic Endothelial (ABAE) cell line. Description: Antiproliferative activity in Adult Bovine Aortic Endothelial (ABAE) cell line, PROTOCOL 3 (4 days, cell count). As to conditions: for IC50: Bos taurus, 96 h. It counts as cell-based. The method, then: as §2, §3
Antiproliferative Activity in Adult Bovine Aortic Endothelial (ABAE) Cell Line
ABAE cells are grown in DMEM media (Mediatech, Washington, D.C.) supplemented with 10% calf serum (Hyclone). ABAE cells are plated in 24-well dishes at 8,000 cells/well, followed by the addition of increasing concentrations of 7-halogen-9-[hydrogen or [(substituted glycyl)amido]]-6-demethyl-6-deoxytetracycline. After four days, the cells are detached and counted. […] The growth inhibition (I) as % of control is calculated as follows: [formula] wherein: Nc is the number of cells in untreated wells;
Nt is the number of cells in treated wells;
No is the number of plated cells.
IC50 of growth inhibition is determined from the sets of I values plotted by Kaleidograph software (Abelbeck Software).
Table 1 presents the results depicting the antiproliferative activity of the compounds of Formula I against an ABAE cell line, as evaluated by PROTOCOL 2 and PROTOCOL 3. The results are presented in terms of IC50 and are as follows.

Experiment [9] concerns CACO2. Description: Antiproliferative activity in human tumor cell lines, PROTOCOL 1 and PROTOCOL 2. As to conditions: Caco-2, colon tumor cell line CACO2, 48 hours, read-out: IC50. In kind it is cell-based. On the procedure:
as §2, §3, §4, §5, §6, §7, §8, §9, §10, §11, §12, §13, §14, §15, §16, §17

Where [10] appears, read: ovarian tumor cell line A2780S, 48 hours, read-out: IC50.
The mark [11] stands for this setting: SW-620, colon tumor cell line SW620, 48 hours, read-out: IC50.

Counter-ions that a name gives are not always drawn. Like-named read-outs stand apart in the source and are kept apart here.

`CN(C)[C@@H]1C(O)=C(C(N)=O)C(=O)[C@@]2(O)C(O)=C3C(=O)c4c(O)ccc(Cl)c4[C@@](C)(O)[C@H]3C[C@@H]12` [Chlortetracycline]: in experiment [1], the inhibition of angiogenesis entry is reported as “useful as inhibitors of angiogenesis”.
As to `CN(C)[C@@H]1C(O)=C(C(N)=O)C(=O)[C@@]2(O)C(O)=C3C(=O)c4c(O)ccc(Cl)c4[C@@H](O)[C@H]3C[C@@H]12` [Demeclocycline], the inhibition of angiogenesis result in [1] was “useful as inhibitors of angiogenesis”.
Regarding `CN(C)[C@@H]1C(O)=C(C(N)=O)C(=O)[C@@]2(O)C(O)=C3C(=O)c4c(O)c(NC(=O)CN5CCCC5)cc(I)c4CC3CC12` (stereo partly drawn) [Example 5, [7S-(7α,10aα)]-N-9-[(Aminocarbonyl)-7-(dimethylamino)-5,5a,6,6a,7,10,10a,12-octahydro-1,8,10a,11-tetrahydroxy-4-iodo-10,12-dioxo-2-naphthacenyl]-1-pyrrolidineacetamide dihydrochloride], the IC50 in experiment [2] (A2780S, 48 h) stood at 4 µg/mL; in experiment [3], 3 µg/mL; in [4] (48 h), 4 µg/mL; in [5], 3.8 µg/mL; in experiment [6], 4 µg/mL; in experiment [7] (SW-620, 48 h), 4 µg/mL.
Regarding `CN(C)[C@@H]1C(O)=C(C(N)=O)C(=O)[C@@]2(O)C(O)=C3C(=O)c4c(O)c(NC(=O)CN5CCCCC5)cc(I)c4CC3CC12` (stereo partly drawn) [Example 6, [7S-(7α,10aα)]-N-9-[(Aminocarbonyl)-7-(dimethylamino)-5,5a,6,6a,7,10,10a,12-octahydro-1,8,10a,11-tetrahydroxy-4-iodo-10,12-dioxo-2-naphthacenyl]-1-piperidine-acetamide dihydrochloride], the IC50 was 2.5 µg/mL in experiment [8] (ABAE cells, PROTOCOL 3, 4 days, read-out: IC50 PROTOCOL 3); around 2 µg/mL in experiment [8] (FIG. 1, ABAE, 4 day assay (Protocol 3), read-out: inhibits 50% of cell growth at); 0.2 µg/mL in experiment [2] (setting [10]); 0.2 µg/mL in experiment [3]; 0.8 µg/mL in experiment [4] (ovarian tumor cell line /DDP, 48 hours, read-out: IC50); 1 µg/mL in experiment [5]. The IC50 in experiment [6] came out at 0.6 µg/mL; in experiment [9], 4 µg/mL; in [7] (setting [11]), 0.4 µg/mL. The “activity upon incubation with cells” value in experiment [8] (FIG. 1, 4 day assay (Protocol 3), in words) is “retains its activity”. In addition, the “activity in preventing the proliferation of ABAE cells compared to Minocycline” value in [8] (Table 1, in words) is “increased activity”.
For the molecule `CN(C)[C@@H]1C(O)=C(C(N)=O)C(=O)[C@@]2(O)C(O)=C3C(=O)c4c(O)c(NC(=O)CNC5CCCC5)cc(I)c4CC3CC12` (stereo partly drawn) [Example 7, [4S-(4',12aα)]-9-[[(Cyclopentylamino)acetyl]amino]-4-(dimethylamino)-1,4,4a,5,5a,6,11,12a-octahydro-3,10,12,12a-tetrahydroxy-7-iodo-1,11-dioxo-2-maphthacenecarboxamide dihydrochloride], the IC50 in experiment [2] (setting [10]) was 2 µg/mL; in [3] it was 1 µg/mL; in experiment [5], 2 µg/mL; in experiment [7] (setting [11]), 3 µg/mL.
Take `CN(C)[C@@H]1C(O)=C(C(=O)NCNCCCC[C@H](N)C(=O)O)C(=O)[C@@]2(O)C(O)=C3C(=O)c4c(O)cccc4[C@@](C)(O)[C@H]3C[C@@H]12` [Lymecycline]: in experiment [1], the inhibition of angiogenesis result is “useful as inhibitors of angiogenesis”.
